Source: paper PMC7156458, “Synthetic biology based construction of biological activity-related library of fungal decalin-containing diterpenoid pyrones” (Nature Communications, 2020)

Molecular target: Aβ42 (Homo sapiens, UniProt P05067)
Experiment: Th-T (thioflavin-T) assay of Aβ42 aggregation
Assay type: biochemical
Settings: for Th-T assay plate reading, mean of three wells (Supplementary Fig. 47): source data, Ab alone and No Ab as controls

Chain of Aβ42 (P05067 672-713): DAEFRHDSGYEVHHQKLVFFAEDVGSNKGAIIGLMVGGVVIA

C=C1CCC2C(C)(CCC=C(C)C)C(O)CCC2(C)C1Cc1c(O)c(C)c(C)oc1=O (stereo not drawn) [Compound 9, higginsianin B]
Th-T fluorescence, mean of three wells (Aβ42 aggregation time course, reading M117): 2.792 | Th-T fluorescence, mean of three wells (Aβ42 aggregation time course, reading M118): 2.807 | Th-T fluorescence, mean of three wells (Aβ42 aggregation time course, reading M119): 2.796 | Th-T fluorescence, mean of three wells (Aβ42 aggregation time course, reading M120): 2.799 | Th-T fluorescence, mean of three wells (Aβ42 aggregation time course, reading M121): 2.791 | Th-T fluorescence, mean of three wells (Aβ42 aggregation time course, reading M122): 2.801 | Th-T fluorescence, mean of three wells (Aβ42 aggregation time course, reading M123): 2.8089 | Th-T fluorescence, mean of three wells (Aβ42 aggregation time course, reading M124): 2.764 | Th-T fluorescence, mean of three wells (Aβ42 aggregation time course, reading M125): 2.798 | Th-T fluorescence, mean of three wells (Aβ42 aggregation time course, reading M126): 2.7918 | Th-T fluorescence, mean of three wells (Aβ42 aggregation time course, reading M127): 2.782 | Th-T fluorescence, mean of three wells (Aβ42 aggregation time course, reading M128): 2.756 | Th-T fluorescence, mean of three wells (Aβ42 aggregation time course, reading M129): 2.788 | Th-T fluorescence, mean of three wells (Aβ42 aggregation time course, reading M130): 2.772 | Th-T fluorescence, mean of three wells (Aβ42 aggregation time course, reading M131): 2.794 | Th-T fluorescence, mean of three wells (Aβ42 aggregation time course, reading M132): 2.756 | Th-T fluorescence, mean of three wells (Aβ42 aggregation time course, reading M133): 2.787 | Th-T fluorescence, mean of three wells (Aβ42 aggregation time course, reading M134): 2.786 | Th-T fluorescence, mean of three wells (Aβ42 aggregation time course, reading M135): 2.766 | Th-T fluorescence, mean of three wells (Aβ42 aggregation time course, reading M136): 2.788 | Th-T fluorescence, mean of three wells (Supplementary Fig. 47, reading M137): 2.782 | Th-T fluorescence, mean of three wells (Supplementary Fig. 47, reading M138): 2.781 | Th-T fluorescence, mean of three wells (Supplementary Fig. 47, reading M139): 2.778 | Th-T fluorescence, mean of three wells (Supplementary Fig. 47, reading M140): 2.777 | Th-T fluorescence, mean of three wells (Supplementary Fig. 47, reading M141): 2.762 | Th-T fluorescence, mean of three wells (Supplementary Fig. 47, reading M142): 2.77 | Th-T fluorescence, mean of three wells (Supplementary Fig. 47, reading M143): 2.794 | Th-T fluorescence, mean of three wells (Supplementary Fig. 47, reading M144): 2.791 | Th-T fluorescence, mean of three wells (Supplementary Fig. 47, reading M145): 2.767 | Th-T assay plate reading, mean of three wells (Supplementary Fig. 47) (measurement M1): 0.2408 | Th-T assay plate reading, mean of three wells (Supplementary Fig. 47) (measurement M2): 0.2372 | Th-T assay plate reading, mean of three wells (Supplementary Fig. 47) (measurement M3): 0.2484 | Th-T assay plate reading, mean of three wells (Supplementary Fig. 47) (measurement M4): 0.2764 | Th-T assay plate reading, mean of three wells (Supplementary Fig. 47) (measurement M5): 0.3211 | Th-T assay plate reading, mean of three wells (Supplementary Fig. 47) (measurement M6): 0.3818 | Th-T assay plate reading, mean of three wells (Supplementary Fig. 47) (measurement M7): 0.386 | Th-T assay plate reading, mean of three wells (Supplementary Fig. 47) (measurement M8): 0.4241 | Th-T assay plate reading, mean of three wells (Supplementary Fig. 47) (measurement M9): 0.4754 | Th-T assay plate reading, mean of three wells (Supplementary Fig. 47) (measurement M10): 0.5222 | Th-T assay plate reading, mean of three wells (Supplementary Fig. 47) (measurement M11): 0.5741 | Th-T assay plate reading, mean of three wells (Supplementary Fig. 47) (measurement M12): 0.6179 | Th-T assay plate reading, mean of three wells (Supplementary Fig. 47) (measurement M13): 0.6443 | Th-T assay plate reading, mean of three wells (Supplementary Fig. 47) (measurement M14): 0.6952 | Th-T assay plate reading, mean of three wells (Supplementary Fig. 47) (measurement M15): 0.7748 | Th-T assay plate reading, mean of three wells (Supplementary Fig. 47) (measurement M16): 1.021 | Th-T fluorescence, mean of three wells (reading M17, Supplementary Fig. 47 source data): 1.394 | Th-T fluorescence, mean of three wells (time-course reading M97, Supplementary Fig. 47 source data): 2.816 | Th-T fluorescence, mean of three wells (time-course reading M98, Supplementary Fig. 47 source data): 2.842 | Th-T fluorescence, mean of three wells (time-course reading M99, Supplementary Fig. 47 source data): 2.834 | Th-T fluorescence, mean of three wells (time-course reading M100, Supplementary Fig. 47 source data): 2.825 | Th-T fluorescence, mean of three wells (time-course reading M101, Supplementary Fig. 47 source data): 2.818 | Th-T fluorescence, mean of three wells (time-course reading M102, Supplementary Fig. 47 source data): 2.832 | Th-T fluorescence, mean of three wells (time-course reading M103, Supplementary Fig. 47 source data): 2.816 | Th-T fluorescence, mean of three wells (time-course reading M104, Supplementary Fig. 47 source data): 2.8075 | Th-T fluorescence, mean of three wells (time-course reading M105, Supplementary Fig. 47 source data): 2.8016 | Th-T fluorescence, mean of three wells (time-course reading M106, Supplementary Fig. 47 source data): 2.808 | Th-T fluorescence, mean of three wells (time-course reading M107, Supplementary Fig. 47 source data): 2.794 | Th-T fluorescence, mean of three wells (time-course reading M108, Supplementary Fig. 47 source data): 2.811 | Th-T fluorescence, mean of three wells (time-course reading M109, Supplementary Fig. 47 source data): 2.783 | Th-T fluorescence, mean of three wells (time-course reading M110, Supplementary Fig. 47 source data): 2.799 | Th-T fluorescence, mean of three wells (time-course reading M111, Supplementary Fig. 47 source data): 2.807 | Th-T fluorescence, mean of three wells (time-course reading M112, Supplementary Fig. 47 source data): 2.812 | Th-T fluorescence, mean of three wells (time-course reading M113, Supplementary Fig. 47 source data): 2.81 | Th-T fluorescence, mean of three wells (time-course reading M114, Supplementary Fig. 47 source data): 2.8 | Th-T fluorescence, mean of three wells (time-course reading M115, Supplementary Fig. 47 source data): 2.812 | Th-T fluorescence, mean of three wells (time-course reading M116, Supplementary Fig. 47 source data): 2.796
